Data on eight molecules can be found in PubChem BioAssay (NCI).

Test systems include A549 NSCLC; COLO 205 colon; HCT-116 colon; HCT-15 colon; KM12 colon; LOX IMVI melanoma; M14 melanoma; MOLT-4 leukemia; NCI-H226 lung; OVCAR-8 ovarian; RPMI-8226 leukemia; RXF 393 renal; SF-268 CNS; SF-295 CNS; SK-MEL-5 melanoma; SNB-75 CNS; UACC-62 melanoma; UO-31 renal.
Common to all, as to experiment: NCI tumour cell line growth inhibition, 48 h

Structures are written as SMILES.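 All cell lines were grown in 96-well plates and treated with compound for 48 hours. TGI is the concentration that stops growth completely.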

As to `O=C(Nc1ccccc1-c1nc2ccccc2[nH]c1=O)c1ccccc1`, the TGI in the test with A549 NSCLC is 69.9 µM; in the test on COLO 205 colon, more than 100 µM; with HCT-116 colon, 40.7 µM; with HCT-15 colon, more than 100 µM; with KM12 colon it was more than 100 µM; with LOX IMVI melanoma it was 61.9 µM. In addition, the TGI is more than 100 µM with M14 melanoma; more than 100 µM with MOLT-4 leukemia; 60.1 µM with NCI-H226 lung; 66.1 µM with OVCAR-8 ovarian; 44.9 µM in the test with RPMI-8226 leukemia; 43.6 µM in the test with RXF 393 renal. The TGI is 64.8 µM in the test with SF-268 CNS; 47.4 µM in the test with SF-295 CNS; more than 100 µM with SK-MEL-5 melanoma; 30.8 µM in the test with SNB-75 CNS; 75.2 µM with UACC-62 melanoma; 38.3 µM in the test on UO-31 renal.
For the molecule `Cc1cc(N(CCC#N)CCC#N)ccc1/C=C(\NC(=O)/C=C/c1ccccc1)C(N)=O`, the TGI in the test with A549 NSCLC, in the test on COLO 205 colon, in the test on HCT-116 colon, in the test on HCT-15 colon, with KM12 colon and with LOX IMVI melanoma was more than 100 µM in each case. Moreover, the TGI in the test with M14 melanoma was more than 100 µM; with MOLT-4 leukemia, more than 100 µM; in the test on NCI-H226 lung, more than 100 µM; in the test on OVCAR-8 ovarian, more than 100 µM; in the test on RPMI-8226 leukemia, more than 100 µM; in the test with RXF 393 renal, 21 µM. In addition, the TGI in the test with SF-268 CNS, in the test on SF-295 CNS, with SK-MEL-5 melanoma, in the test with SNB-75 CNS, with UACC-62 melanoma and in the test with UO-31 renal was more than 100 µM throughout.
In the case of `Cn1cc(C2(C)CC(C)(C)c3c2n(C)c2ccccc32)c2ccccc21` (stereo not drawn), the TGI in the test with A549 NSCLC, with COLO 205 colon, in the test with HCT-15 colon, in the test on KM12 colon, in the test with LOX IMVI melanoma and with M14 melanoma was more than 100 µM throughout. For the same molecule, the TGI in the test on MOLT-4 leukemia, with NCI-H226 lung, in the test with OVCAR-8 ovarian, with RPMI-8226 leukemia, in the test on RXF 393 renal and in the test with SF-268 CNS was more than 100 µM each time. Also, the TGI in the test on SF-295 CNS, with SK-MEL-5 melanoma, in the test with SNB-75 CNS, in the test on UACC-62 melanoma and in the test with UO-31 renal was more than 100 µM in each case.
As to `CC1=CCC(O)C=CC(C)C(O)C(C)C=C(C)C(=O)c2c(O)c(C)cc3c2C(=O)C(N)=C(NC(=O)/C=C\C=C/C=CC(C)C(O)CC1=O)C3=O` (stereo not drawn), the TGI in the test on A549 NSCLC was more than 100 µM; in the test with COLO 205 colon it was more than 100 µM; with HCT-116 colon, 54.4 µM; in the test with HCT-15 colon it was more than 100 µM; in the test with KM12 colon, more than 100 µM; in the test with LOX IMVI melanoma it was more than 100 µM. The TGI in the test with M14 melanoma, with MOLT-4 leukemia, in the test with NCI-H226 lung, with OVCAR-8 ovarian, in the test with RPMI-8226 leukemia and in the test with SF-268 CNS was more than 100 µM in each case. Moreover, the TGI in the test on SF-295 CNS, in the test on SK-MEL-5 melanoma, in the test on SNB-75 CNS, in the test on UACC-62 melanoma and with UO-31 renal was more than 100 µM throughout.
For `CCN(CC)C1CC(O[C@H]2C[C@](O)(C(=O)CO)Cc3c(O)c4c(c(O)c32)C(=O)c2c(OC)cccc2C4=O)OC(C)C1O` (stereo partly drawn), the TGI in the test on A549 NSCLC stood at 0.394 µM; in the test with COLO 205 colon, 0.193 µM; in the test on HCT-116 colon, 1.03 µM; in the test on HCT-15 colon, 3.54 µM; in the test with KM12 colon it was 0.457 µM; with LOX IMVI melanoma, 0.439 µM. Besides, the TGI in the test with M14 melanoma worked out at 0.31 µM; in the test with MOLT-4 leukemia, 1.17 µM; in the test on NCI-H226 lung, 0.044 µM; with OVCAR-8 ovarian it was 0.565 µM; in the test on RPMI-8226 leukemia, 0.31 µM; in the test with RXF 393 renal, 0.123 µM. Further, the TGI turned out to be 0.314 µM in the test with SF-268 CNS; 0.468 µM in the test on SF-295 CNS; 0.124 µM in the test on SK-MEL-5 melanoma; 0.184 µM in the test on SNB-75 CNS; 0.0968 µM with UACC-62 melanoma; 0.264 µM in the test on UO-31 renal.
Take `O=C(Nc1cc(Cl)c(Cl)cc1Cl)C(=O)C1C(=O)NC(=S)NC1=O`: the TGI in the test with A549 NSCLC, with COLO 205 colon, in the test on HCT-116 colon, in the test on HCT-15 colon, with KM12 colon and with LOX IMVI melanoma was more than 100 µM each time. Moreover, the TGI in the test with M14 melanoma, in the test with MOLT-4 leukemia, in the test with NCI-H226 lung, with OVCAR-8 ovarian, in the test with RPMI-8226 leukemia and in the test on RXF 393 renal was more than 100 µM throughout. The TGI in the test on SF-268 CNS, in the test with SF-295 CNS, in the test with SK-MEL-5 melanoma, in the test on SNB-75 CNS, with UACC-62 melanoma and with UO-31 renal was more than 100 µM throughout.
For `N#C/C(=C/NC(N)=S)C(N)=O`, the TGI in the test on A549 NSCLC, with COLO 205 colon, in the test on HCT-116 colon, in the test with HCT-15 colon, in the test on KM12 colon and in the test on LOX IMVI melanoma was more than 100 µM in each case. The TGI in the test with M14 melanoma, with NCI-H226 lung, with OVCAR-8 ovarian, in the test on RXF 393 renal, in the test with SF-268 CNS and in the test with SF-295 CNS was more than 100 µM throughout. The TGI in the test with SK-MEL-5 melanoma, with SNB-75 CNS and in the test with UO-31 renal was more than 100 µM in each case.
On to `O=c1cc(-c2ccc(Oc3ccccc3)cc2)[nH]c2cc3c(cc12)OCO3`, for which the TGI in the test with A549 NSCLC, in the test on COLO 205 colon, in the test with HCT-116 colon, in the test with HCT-15 colon, in the test with LOX IMVI melanoma and in the test with M14 melanoma was more than 100 µM throughout. In addition, the TGI in the test on MOLT-4 leukemia, with NCI-H226 lung, with OVCAR-8 ovarian, with RPMI-8226 leukemia, with RXF 393 renal and in the test on SF-268 CNS was more than 100 µM in each case. Also, the TGI in the test with SF-295 CNS, with SK-MEL-5 melanoma, in the test on SNB-75 CNS, in the test on UACC-62 melanoma and in the test on UO-31 renal was more than 100 µM each time.
